Assay results as given in ChEMBL document CHEMBL3813646, “Small molecules that target phosphorylation dependent protein-protein interaction” (Bioorg Med Chem, 2016).
Residues, ends and D or L forms follow the SMILES beside them.

Tests used:
[1] = molecular target: Serine/threonine-protein kinase PLK1 (Homo sapiens, UniProt P53350); assay: Inhibition of human Plk1 PBD (326 to 603 residues) using 5-carboxyfluorescein-GPMQSpTPLNG-OH as substrate incubated for 1 hr prior to addition of substrate by fluorescence polarization assay
Serine/threonine-protein kinase PLK1, sequence (P53350 whole entry, the tested form may be a part): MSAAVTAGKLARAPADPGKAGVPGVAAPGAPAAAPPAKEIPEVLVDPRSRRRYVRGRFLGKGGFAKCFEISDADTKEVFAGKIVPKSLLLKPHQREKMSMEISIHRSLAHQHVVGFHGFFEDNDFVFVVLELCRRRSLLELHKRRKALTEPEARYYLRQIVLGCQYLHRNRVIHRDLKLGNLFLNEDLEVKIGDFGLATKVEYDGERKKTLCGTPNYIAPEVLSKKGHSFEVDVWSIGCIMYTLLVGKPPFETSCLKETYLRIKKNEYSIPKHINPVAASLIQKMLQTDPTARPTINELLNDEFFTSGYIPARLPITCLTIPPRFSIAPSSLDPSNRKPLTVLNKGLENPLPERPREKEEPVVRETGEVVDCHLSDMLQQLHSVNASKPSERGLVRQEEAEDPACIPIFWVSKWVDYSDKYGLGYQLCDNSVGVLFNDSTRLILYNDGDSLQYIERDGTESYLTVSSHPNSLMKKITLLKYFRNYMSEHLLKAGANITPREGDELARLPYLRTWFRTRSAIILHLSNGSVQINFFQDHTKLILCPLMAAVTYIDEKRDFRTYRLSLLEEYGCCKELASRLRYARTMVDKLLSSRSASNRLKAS

[2] = molecular target: Serine/threonine-protein kinase PLK2 (Homo sapiens, UniProt Q9NYY3); assay: Inhibition of human Plk2 PBD (355 to 685 residues) using 5-carboxyfluorescein-GPMQTSpTPKNG-OH as substrate incubated for 1 hr prior to addition of substrate by fluorescence polarization assay
Serine/threonine-protein kinase PLK2, sequence (Q9NYY3 whole entry, the tested form may be a part): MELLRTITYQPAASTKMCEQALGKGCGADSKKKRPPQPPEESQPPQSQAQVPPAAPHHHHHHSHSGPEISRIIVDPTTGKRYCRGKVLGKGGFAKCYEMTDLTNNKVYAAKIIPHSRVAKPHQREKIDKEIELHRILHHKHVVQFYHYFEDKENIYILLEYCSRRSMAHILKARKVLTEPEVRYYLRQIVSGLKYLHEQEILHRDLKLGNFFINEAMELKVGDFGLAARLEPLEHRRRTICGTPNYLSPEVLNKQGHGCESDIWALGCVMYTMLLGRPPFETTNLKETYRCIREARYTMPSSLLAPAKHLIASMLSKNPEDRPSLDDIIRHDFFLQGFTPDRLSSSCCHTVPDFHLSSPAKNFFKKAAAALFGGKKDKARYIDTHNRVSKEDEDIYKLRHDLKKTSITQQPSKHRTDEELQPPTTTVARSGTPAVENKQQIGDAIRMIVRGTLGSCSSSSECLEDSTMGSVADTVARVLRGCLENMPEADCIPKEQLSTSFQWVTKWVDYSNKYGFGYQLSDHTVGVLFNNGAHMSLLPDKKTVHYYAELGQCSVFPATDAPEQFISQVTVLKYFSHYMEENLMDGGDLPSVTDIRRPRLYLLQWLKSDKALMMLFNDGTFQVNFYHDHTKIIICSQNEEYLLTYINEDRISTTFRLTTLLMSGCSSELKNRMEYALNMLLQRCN

[3] = molecular target: Serine/threonine-protein kinase PLK3 (Homo sapiens, UniProt Q9H4B4); assay: Inhibition of human Plk3 PBD (335 to 646 residues) using 5-carboxyfluorescein-GPLATSpTPKNG-OH as substrate incubated for 1 hr prior to addition of substrate by fluorescence polarization assay
Serine/threonine-protein kinase PLK3, sequence (Q9H4B4 whole entry, the tested form may be a part): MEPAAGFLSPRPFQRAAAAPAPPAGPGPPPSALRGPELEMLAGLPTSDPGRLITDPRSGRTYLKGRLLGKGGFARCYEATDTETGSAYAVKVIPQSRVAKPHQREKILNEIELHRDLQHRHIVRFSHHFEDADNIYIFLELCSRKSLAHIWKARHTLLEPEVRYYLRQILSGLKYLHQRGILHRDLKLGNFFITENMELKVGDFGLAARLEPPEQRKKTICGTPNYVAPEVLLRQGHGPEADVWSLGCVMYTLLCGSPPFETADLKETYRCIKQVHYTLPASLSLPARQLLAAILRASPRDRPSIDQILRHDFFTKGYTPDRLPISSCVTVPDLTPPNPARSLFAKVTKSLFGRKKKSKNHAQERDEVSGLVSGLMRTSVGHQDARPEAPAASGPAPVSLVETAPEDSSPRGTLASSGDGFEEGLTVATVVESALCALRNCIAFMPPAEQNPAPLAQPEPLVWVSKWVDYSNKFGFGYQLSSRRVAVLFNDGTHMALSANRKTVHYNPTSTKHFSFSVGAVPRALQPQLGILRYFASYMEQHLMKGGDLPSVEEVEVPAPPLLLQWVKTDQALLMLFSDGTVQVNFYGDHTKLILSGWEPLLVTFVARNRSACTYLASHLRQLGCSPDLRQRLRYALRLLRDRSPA

[4] = molecular target: Serine/threonine-protein kinase Chk2 (Homo sapiens) (UniProt O96017); assay: Inhibition of Chk2 FHA (1 to 225 residues) (unknown origin) using 5-carboxyfluorescein-GHFDpTYLI-RR-OH as substrate at 40 uM incubated for 1 hr prior to addition of substrate by fluorescence polarization assay
Serine/threonine-protein kinase Chk2 (Homo sapiens), sequence (O96017 whole entry, the tested form may be a part): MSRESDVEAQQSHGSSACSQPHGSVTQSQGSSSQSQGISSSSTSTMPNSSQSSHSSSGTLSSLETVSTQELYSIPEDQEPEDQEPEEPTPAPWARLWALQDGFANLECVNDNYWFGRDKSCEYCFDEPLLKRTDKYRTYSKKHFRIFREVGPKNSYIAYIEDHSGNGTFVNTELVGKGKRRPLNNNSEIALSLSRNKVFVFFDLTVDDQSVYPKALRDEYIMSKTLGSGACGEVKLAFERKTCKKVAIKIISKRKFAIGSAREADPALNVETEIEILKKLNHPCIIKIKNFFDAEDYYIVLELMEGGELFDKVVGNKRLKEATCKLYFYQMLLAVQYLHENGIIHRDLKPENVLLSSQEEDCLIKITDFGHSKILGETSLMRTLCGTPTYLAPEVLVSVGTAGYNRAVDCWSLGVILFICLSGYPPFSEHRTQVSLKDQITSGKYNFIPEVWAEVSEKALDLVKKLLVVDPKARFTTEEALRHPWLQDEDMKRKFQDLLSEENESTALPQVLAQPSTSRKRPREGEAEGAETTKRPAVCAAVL

[5] = molecular target: Peptidyl-prolyl cis-trans isomerase NIMA-interacting 1 (Homo sapiens) (UniProt Q13526); assay: Inhibition of Pin1 (1 to 162 residues) (unknown origin) using 5-carboxyfluorescein-GHFDpTYLI-RR-OH as substrate at 40 uM incubated for 1 hr prior to addition of substrate by fluorescence polarization assay
Peptidyl-prolyl cis-trans isomerase NIMA-interacting 1 (Homo sapiens), sequence (Q13526 whole entry, the tested form may be a part): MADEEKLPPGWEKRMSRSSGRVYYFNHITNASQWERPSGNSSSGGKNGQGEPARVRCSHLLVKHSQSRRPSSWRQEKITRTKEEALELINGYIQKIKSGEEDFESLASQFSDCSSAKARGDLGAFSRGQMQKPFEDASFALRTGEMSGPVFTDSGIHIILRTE

14-3-3 protein sigma = molecular target: T1, 14-3-3 protein sigma (Homo sapiens, UniProt P31947); assay: Inhibition of 14-3-3sigma (unknown origin) assessed as reduction in 14-3-3sigma- mediated increase in MMP1 mRNA by cell based assay
T1 sequence (P31947 whole entry): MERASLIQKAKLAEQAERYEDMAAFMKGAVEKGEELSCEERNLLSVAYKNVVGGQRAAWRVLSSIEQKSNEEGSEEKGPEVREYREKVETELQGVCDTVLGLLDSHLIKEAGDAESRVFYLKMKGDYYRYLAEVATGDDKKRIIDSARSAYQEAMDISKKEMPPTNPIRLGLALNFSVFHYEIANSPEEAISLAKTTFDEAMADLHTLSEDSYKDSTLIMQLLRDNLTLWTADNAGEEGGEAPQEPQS

[6] = molecular target: T2, 14-3-3 protein beta/alpha (Homo sapiens, UniProt P31946); assay: Binding affinity to GST-tagged 125I-labelled 14-3-3beta (unknown origin) expressed in Escherichia coli by solid phase assay
T2 sequence (P31946 whole entry): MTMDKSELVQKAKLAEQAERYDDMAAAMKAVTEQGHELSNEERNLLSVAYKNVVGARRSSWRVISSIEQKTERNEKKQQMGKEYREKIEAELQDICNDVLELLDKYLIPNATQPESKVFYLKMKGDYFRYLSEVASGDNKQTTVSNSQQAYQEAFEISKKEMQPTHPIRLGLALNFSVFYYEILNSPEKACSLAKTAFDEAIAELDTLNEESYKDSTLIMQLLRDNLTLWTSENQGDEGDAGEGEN

14-3-3 protein theta = molecular target: T3, 14-3-3 protein theta (Homo sapiens, UniProt P27348); assay: Binding affinity to GST-tagged 125I-labelled full length human 14-3-3tau expressed in Escherichia coli by solid phase assay
T3 sequence (P27348 whole entry): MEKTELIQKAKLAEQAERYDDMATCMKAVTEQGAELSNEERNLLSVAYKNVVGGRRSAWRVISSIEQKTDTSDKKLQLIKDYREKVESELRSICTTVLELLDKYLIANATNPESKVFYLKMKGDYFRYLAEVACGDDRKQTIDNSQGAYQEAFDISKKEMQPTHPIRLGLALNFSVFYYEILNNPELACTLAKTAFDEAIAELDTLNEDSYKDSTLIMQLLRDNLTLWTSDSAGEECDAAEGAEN

14-3-3 protein eta = molecular target: T4, 14-3-3 protein eta (Homo sapiens, UniProt Q04917); assay: Binding affinity to GST-tagged 125I-labelled 14-3-3eta (unknown origin) expressed in Escherichia coli by solid phase assay
T4 sequence (Q04917 whole entry): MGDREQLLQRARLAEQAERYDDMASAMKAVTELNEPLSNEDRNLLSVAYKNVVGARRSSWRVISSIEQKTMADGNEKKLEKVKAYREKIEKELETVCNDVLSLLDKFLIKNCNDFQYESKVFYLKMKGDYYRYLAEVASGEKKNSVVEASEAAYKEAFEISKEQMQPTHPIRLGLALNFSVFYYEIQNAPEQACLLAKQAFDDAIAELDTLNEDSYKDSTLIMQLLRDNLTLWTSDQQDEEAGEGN

[7] = molecular target: T5, 14-3-3 protein sigma (Homo sapiens) (UniProt P31947); assay: Induction of human 14-3-3sigma binding to TASK-3 using FAM-370RRK-pS-V374-COOH by fluorescence polarization assay relative to control
T5 sequence (whole entry): T1 sequence (P31947 whole entry)

For `COc1ccc(Br)cc1/C=c1\sc2nc(=O)c(C)nn2c1=O`, which IC50 [1] is on record?
Its IC50 is 3.2 µM.

What about the IC50 [2] of the same compound?
The IC50 was 1.7 µM.

What about the IC50 [3] of the same compound?
Its IC50 is 3 µM.

What about the inhibition [4] of the same compound?
The inhibition was 35%.

What about the inhibition [5] of the same compound?
The inhibition was 32%.

With `O=C(COc1ccccc1P(=O)(O)O)Nc1cccc(Cl)c1Cl` as the compound, how does the IC50 (14-3-3 protein sigma) read?
The IC50 was 5 µM.

How did the Kd [6] turn out when `CSCC[C@H](NC(=O)[C@H](CC(N)=O)NC(=O)[C@H](C)NC(=O)[C@H](CCC(=O)O)NC(=O)[C@H](CC(C)C)NC(=O)[C@H](CC(=O)O)NC(=O)[C@H](CC(C)C)NC(=O)[C@H](Cc1c[nH]c2ccccc12)NC(=O)[C@H](CO)NC(=O)[C@H](CC(C)C)NC(=O)[C@H](CC(=O)O)NC(=O)[C@H](CCCNC(=N)N)NC(=O)[C@@H]1CCCN1C(=O)[C@@H](NC(=O)[C@H](CS)NC(=O)[C@H](Cc1cnc[nH]1)NC(=O)[C@@H]1CCCN1)C(C)C)C(=O)N[C@@H](CS)C(=O)N[C@@H](CC(C)C)C(=O)N1CCC[C@H]1C(=O)O` (H-PHCVPRDLSWLDLEANMCLP-OH) was run?
The Kd was 0.07 µM.

What about the Kd (14-3-3 protein theta) of the same compound?
Its Kd is 0.07 µM.

And the Kd (14-3-3 protein eta)?
Its Kd is 0.07 µM.

`COC[C@H]1CC[C@@H]2/C1=C\[C@]1(C)C(=C(C(C)C)[C@@H]3CCO[C@@H]31)[C@@H](O[C@H]1O[C@@H]3COC(C)(C)O[C@H]3[C@H](O)[C@H]1O)[C@H](O)[C@@H]2C` was tested. Which fold change (FC) [7] did it give?
The fold change (FC) was 19.
